Experimental data published in US9447095B2, “Pyrimidine derivatives as phosphodiesterase 10 inhibitors (PDE-10)” (PALOBIOFARMA S.L., priority 2013, dated 2016).

Target: Phosphodiesterase 10A (PDE10A) (Homo sapiens (Human), UniProt Q9Y233)
Test: Phosphodiesterase 10A (PDE10A) activity inhibition test ([3H]cAMP scintillation proximity assay)
Type: biochemical
Conditions: dose-response, 1:10 dilutions from 100 μM to 1 nM; [3H]cAMP SPA, 20 minutes at 30° C.; read-out: IC50 PDE10
Protocol: The “analysis of the activity of the enzyme Phosphodiesterase [^3H] cAMP SPA” (Perkin Elmer #7090 TRKQ) kit was used for the study of Phosphodiesterase 10. The kit contains: • Yttrium scintillation proximity assay (SPA) in beads: yttrium silicate in microspheres resuspended pellet in MiliQ water containing 18 mM zinc sulfate. • 10×PDE assay buffer: 500 mM Tris/HCl; 83 mM MgCl2; 17 mM EGTA; pH 7.5. • Tracer [^3H] cAMP: substrate for enzymatic reaction.
The test is based on the preferential binding of linear nucleotides to the SPA beads in the presence of zinc sulfate, with respect to the binding of cyclic nucleotides, which is almost imperceptible.
The binding of the radioactively labeled product to the beads brings the isotope to a proximity enough to allow the radioactive tritium radiation to excite the flashing part in the bead. Any independent radiolabel is not sufficiently close to the flashing part to allow the transfer of energy, so that no signal is generated. In addition, as the cyclic substrate is not effectively linked with the bead, the generated background signal is very low.
The binding of the linear nucleotides with the bead is based on a complex chelation mechanism. Zinc sulfate in the microsphere solution improves the binding between the bead and […].
Phosphodiesterase 10A (PDE10A) Activity Inhibition Test
The test is performed in 96-well Flexiplates (Perkin Elmer #1450-401) with duplicates for each sample. Positive and negative controls are also required in each analyzed plate to evaluate the activity of the enzyme.
The inhibition values for each of the compounds are measured in duplicate at a concentration of 10 μM and the plate is incubated for 20 minutes at 30° C. and then 50 μL of the kit beads are then added “Phosphodiesterase SPA beads” (Perkin-Elmer #RPNQ0150).
The plate is stirred for 1 hour at room temperature. Then beads are allowed to stand for one hour before reading the activity in a beta scintillation counter.
To build a dose-response curve, in order to calculate the potency of inhibition (expressed as IC50) for PDE10A, a series of 1:10 dilutions in test in 1× buffer from 100 μM to 1 nM for each compound were carried out.

Chain of Phosphodiesterase 10A (PDE10A) (Q9Y233 whole entry, species assumed): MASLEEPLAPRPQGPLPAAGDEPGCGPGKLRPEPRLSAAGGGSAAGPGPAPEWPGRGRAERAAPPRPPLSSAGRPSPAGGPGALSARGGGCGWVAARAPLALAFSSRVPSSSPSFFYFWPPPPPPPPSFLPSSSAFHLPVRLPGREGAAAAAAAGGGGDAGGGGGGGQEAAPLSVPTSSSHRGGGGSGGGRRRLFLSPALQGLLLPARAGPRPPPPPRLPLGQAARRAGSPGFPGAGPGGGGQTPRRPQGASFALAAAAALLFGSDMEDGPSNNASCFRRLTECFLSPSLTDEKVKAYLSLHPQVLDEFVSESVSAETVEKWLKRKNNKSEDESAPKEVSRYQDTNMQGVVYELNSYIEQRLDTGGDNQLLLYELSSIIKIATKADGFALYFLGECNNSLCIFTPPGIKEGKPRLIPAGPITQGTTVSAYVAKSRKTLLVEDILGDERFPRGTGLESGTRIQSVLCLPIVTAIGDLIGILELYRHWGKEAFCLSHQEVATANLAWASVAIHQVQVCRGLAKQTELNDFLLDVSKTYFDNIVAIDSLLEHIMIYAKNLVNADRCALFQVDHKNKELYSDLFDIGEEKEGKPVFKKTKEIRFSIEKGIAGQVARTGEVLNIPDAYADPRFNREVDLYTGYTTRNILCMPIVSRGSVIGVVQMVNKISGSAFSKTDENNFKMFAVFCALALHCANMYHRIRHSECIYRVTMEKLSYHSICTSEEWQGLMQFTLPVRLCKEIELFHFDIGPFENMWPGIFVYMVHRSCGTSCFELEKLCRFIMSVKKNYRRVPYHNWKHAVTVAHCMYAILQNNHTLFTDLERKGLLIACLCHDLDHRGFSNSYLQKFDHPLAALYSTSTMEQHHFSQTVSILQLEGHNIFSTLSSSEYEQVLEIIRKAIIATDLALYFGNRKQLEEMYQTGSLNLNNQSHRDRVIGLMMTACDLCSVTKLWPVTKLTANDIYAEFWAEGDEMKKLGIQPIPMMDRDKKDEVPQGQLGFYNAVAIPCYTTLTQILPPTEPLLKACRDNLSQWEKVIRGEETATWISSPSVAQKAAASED

SMILES | IC50
Nc1nc(-n2ncc3ccccc32)nc(NC2CCOCC2)c1Br [Example 7, 5-bromo-N^4-(tetrahydro-2H-pyran-4-yl)-2-(1H-indazol-1-yl)pyrimidine-4,6-diamine] | 21.9 nM
C#CCNc1nc(-n2cc(-c3ccccn3)cn2)nc(N)c1Br [Example 17, 5-bromo-N^4-(prop-2-ynyl)-2-[4-(pyridin-2-yl)-1H-pyrazol-1-yl]pyrimidine-4,6-diamine] | 18 nM
Nc1nc(-n2cc(-c3ccc4ccccc4n3)cn2)nc(NC2CCOCC2)c1Br [Example 23, 5-bromo-N^4-(tetrahydro-2H-pyran-4-yl)-2-[4-(quinolin-2-yl)-1H-pyrazol-1-yl]pyrimidine-4,6-diamine] | 9.6 nM
Cc1ncsc1CNc1nc(-n2cc(-c3cnccn3)cn2)nc(N)c1Br [Example 29, 5-bromo-N^4-[(4-methylthiazol-5-yl)methyl]-2-[4-(pyrazin-2-yl)-1H-pyrazol-1-yl]pyrimidine-4,6-diamine] | 16.5 nM
C#CCNc1nc(-n2cc(-c3cnccn3)cn2)nc(N)c1Br [Example 30, 5-bromo-N^4-(prop-2-ynyl)-2-[4-(pyrazin-2-yl)-1H-pyrazol-1-yl]pyrimidine-4,6-diamine] | 4.5 nM
C#CCNc1nc(-n2ncc3ccncc32)nc(N)c1Br [Example 33, 5-bromo-N^4-(prop-2-ynyl)-2-(1H-pyrazolo[3,4-c]pyridin-1-yl)pyrimidine-4,6-diamine] | 3.2 nM
Nc1nc(-n2ncc3ccncc32)nc(NCC2CC2)c1Br [Example 35, 5-bromo-N^4-(cyclopropylmethyl)-2-(1H-pyrazolo[3,4-c]pyridin-1-yl)pyrimidine-4,6-diamine] | 1.8 nM
Cc1ncsc1CNc1nc(-n2ncc3ncccc32)nc(N)c1Br [Example 41, 5-bromo-N^4-[(4-methylthiazol-5-yl)methyl]-2-(1H-pyrazolo[4,3-b]pyridin-1-yl)pyrimidine-4,6-diamine] | 0.6 nM
C#CCNc1nc(-n2cncn2)nc(N)c1Br [Example 42, 5-bromo-N^4-(prop-2-ynyl)-2-(1H-1,2,4-triazol-1-yl)pyrimidine-4,6-diamine] | 5.8 nM
Nc1nc(-n2cncn2)nc(NCC2CC2)c1Br [Example 46, 5-bromo-N^4-(cyclopropylmethyl)-2-(1H-1,2,4-triazol-1-yl)pyrimidine-4,6-diamine] | 3.4 nM
Nc1nc(-n2cc(C(=O)O)cn2)nc(NCC2CC2)c1Br [Example 51, 1-[4-amino-5-bromo-6-(cyclopropylmethylamino)pyrimidin-2-yl]-1H-pyrazole-4-carboxylic acid] | 29.9 nM
CCNc1nc(-n2cc(C(=O)N3CCOCC3)cn2)nc(N)c1Br [Example 53, {1-[4-amino-5-bromo-6-(ethylamino)pyrimidin-2-yl]-1H-pyrazole-4-yl}(morpholino)methanone] | 8.2 nM
Nc1nc(-n2cc(-c3ccccn3)cn2)nc(-n2cccn2)c1Br [Example 55, 5-bromo-6-(1H-pyrazol-1-yl)-2-[4-(pyridin-2-yl)-1H-pyrazol-1-yl]pyrimidin-4-amine] | 90.7 nM
CCNc1nc(-n2cc(-c3ccncn3)cn2)nc(N)c1Br [Example 61, 5-bromo-N^4-ethyl-2-[4-(pyrimidin-4-yl)-1H-pyrazol-1-yl]pyrimidine-4,6-diamine] | 37 nM
CCNc1nc(-n2ncc3ccccc32)nc(N)c1Cl [Example 64, 5-chloro-N^4-ethyl-2-(1H-indazol-1-yl)pyrimidine-4,6-diamine] | 12.4 nM
C#CCNc1nc(-n2ncc3ccccc32)nc(NCC)c1Br [Example 66, 5-bromo-N^4-ethyl-2-(1H-indazol-1-yl)-N^6-(prop-2-ynyl)pyrimidine-4,6-diamine] | 120 nM
CCNc1nc(-n2cc(-c3ccncn3)cn2)nc(NCc2nc3ccccc3[nH]2)c1Br [Example 77, N^4-[(1H-benzo[d]imidazol-2-yl)methyl]-5-bromo-N^6-ethyl-2-[4-(pyrimidin-4-yl)-1H-pyrazol-1-yl]pyrimidine-4,6-diamine] | 29.3 nM

The next lines start with the values.

IC50 | SMILES
52.5 nM | Nc1nc(-n2ncc3ccccc32)nc(NCC2CC2)c1Br [Example 1, 5-bromo-N^4-(cyclopropylmethyl)-2-(1H-indazol-1-yl)pyrimidine-4,6-diamine]
21.9 nM | CCNc1nc(-n2ncc3ccccc32)nc(N)c1Br [Example 2, 5-bromo-N^4-ethyl-2-(1H-indazol-1-yl)pyrimidine-4,6-diamine]
40.9 nM | C#CCNc1nc(-n2ncc3ccccc32)nc(N)c1Br [Example 3, 5-bromo-2-(1H-indazol-1-yl)-N^4-(prop-2-ynyl)pyrimidine-4,6-diamine]
18.8 nM | Cc1nc(CNc2nc(-n3ncc4ccccc43)nc(N)c2Br)cs1 [Example 6, 5-bromo-2-(1H-indazol-1-yl)-N^4-[(2-methylthiazol-4-yl)methyl]pyrimidine-4,6-diamine]
74.1 nM | Cn1cc(CNc2nc(-n3ncc4ccccc43)nc(N)c2Br)cn1 [Example 8, 5-bromo-2-(1H-indazol-1-yl)-N^4-[(1-methyl-1H-pyrazol-4-yl)methyl]pyrimidine-4,6-diamine]
1.6 nM | Nc1nc(-n2ncc3ccccc32)nc(NCc2cncs2)c1Br [Example 9, 5-bromo-2-(1H-indazol-1-yl)-N^4-[(thiazol-5-yl)methyl]pyrimidine-4,6-diamine]
2.9 nM | Cc1ncsc1CNc1nc(-n2ncc3ccccc32)nc(N)c1Br [Example 10, 5-bromo-2-(1H-indazol-1-yl)-N^4-[(4-methylthiazol-5-yl)methyl]pyrimidine-4,6-diamine]
25.9 nM | COCCNc1nc(-n2ncc3ccccc32)nc(N)c1Br [Example 11, 5-bromo-2-(1H-indazol-1-yl)-N^4-(2-methoxyethyl)pyrimidine-4,6-diamine]
7 nM | Nc1nc(-n2cc(-c3ccccn3)cn2)nc(NCc2cncs2)c1Br [Example 20, 5-bromo-2-[4-(pyridin-2-yl)-1H-pyrazol-1-yl]-N^4-[(thiazol-5-yl)methyl]pyrimidine-4,6-diamine]
0.4 nM | Cc1ncsc1CNc1nc(-n2ncc3ccncc32)nc(N)c1Br [Example 34, 5-bromo-N^4-[(4-methylthiazol-5-yl)methyl]-2-(1H-pyrazolo[3,4-c]pyridin-1-yl)pyrimidine-4,6-diamine]
0.06 nM | Nc1nc(-n2ncc3ccncc32)nc(NCc2cncs2)c1Br [Example 36, 5-bromo-2-(1H-pyrazolo[3,4-c]pyridin-1-yl)-N^4-[(thiazol-5-yl)methyl]pyrimidine-4,6-diamine]
0.3 nM | Cc1ncsc1CNc1nc(-n2ncc3cnccc32)nc(N)c1Br [Example 39, 5-bromo-N^4-[(4-methylthiazol-5-yl)methyl]-2-(1H-pyrazolo[4,3-c]pyridin-1-yl)pyrimidine-4,6-diamine]
1.3 nM | Nc1nc(-n2cncn2)nc(NCc2cncs2)c1Br [Example 45, 5-bromo-N^4-[(thiazol-5-yl)methyl]-2-(1H-1,2,4-triazol-1-yl)pyrimidine-4,6-diamine]
